Assay results: US8314079B2, “Hyaluronic acid oligosaccharide fractions and drugs containing the same” (Seikagaku Corporation, priority 2000, dated 2012)

Key:
[1] = tested on: HSF1; assay: Phosphorylation (activation) of HSF1 in heat-shocked K562 cells, band shift 66 kDa to 81 kDa by SDS-PAGE/Western blotting; assay type: cell-based, human; conditions: for shift of a band of 66 kDa (HSF1 not phosphorylated) to a band of 81 kDa (phosphorylated HSF1): Experiment 1, 1, 10 or 100 ng/mL, heat shock 42° C., 20 minutes; for amount of HSF1 per se / band shift of HSF1 (66 kDa to 81 kDa): Experiment 2 (and comparative Experiment 3), 100 ng/mL, heat shock 43° C.
From the text: It is known that HSF1 (heat shock factor 1) protein is a transcription factor of Hsp70 (J. Biol. Chem., 271, pp. 3355-3358, 1996). Moreover, the HSF1 protein can be activated by phosphorylation, and this phosphorylation can be detected based on band shift in SDS-polyacrylamide gel electrophoresis (SDS-PAGE) (apparent molecular weight shifts from about 66 kDa to about 81 kDa). By utilizing this fact, the HA oligosaccharides of various sizes were allowed to act on the K562 cells given with stress, and the aforementioned band shift was detected to investigate the degree of the phosphorylation (activation) of HSF1.
HA4, ΔHA4, HA6, HA8, HA2-18 and HA 8-14 were each added to a medium containing the aforementioned cells at a concentration of 1, 10 or 100 ng/mL. Then, the cells were immediately transferred into an environment at 42° C. to be given with heat shock and incubated for 20 minutes. After the incubation, the cells were collected by centrifugation, and SDS-PAGE (gel concentration: 10%) was performed. Thereafter, Western blotting was performed by using anti-HSF1 monoclonal antibodies (produced by Stressgene) as primary antibodies and goat anti-mouse IgG monoclonal antibodies (produced by Jackson Lab) as secondary antibodies to detect the shift of a band of 66 kDa (HSF1 not phosphorylated) to a band of 81 kDa (phosphorylated HSF1).
In order to confirm the reproducibility of Experiment 1, the band shift was detected in the same manner as in Experiment 1 by using HA4, ΔHA4, HA8 and HA84 except that HA was added in a single kind of amount of 100 ng/mL, and the heat shock was given at 43° C. In FIG. 41, the first lane from the left indicates the result obtained with an extract of cells incubated at 37° C. (no addition of HA oligosaccharide), the second lane indicates the result obtained with an extract of cells subjected to 43° C. (no addition of HA oligosaccharide), and the first lane from the right indicates the result of detection of HSF1 (derived from bacteria) as a standard.
In order to investigate whether the action observed in Experiment 2 was specific to the saccharide chain basic structure of HA oligosaccharides, the following comparative experiment was performed by using chondroitin oligosaccharides. […] Therefore, it can be said that Ch is a substance extremely structurally analogous to HA, and the same shall also apply to the oligosaccharides thereof. • Saturated Ch tetrasaccharide (Ch4) • GlcAβ1-3GalNAcβ1-4GlcAβ1-3GalNAc • Saturated Ch hexasaccharide (Ch6) • GlcAβ1-3GalNAcβ1-4GlcAβ1-3GalNAcβ1-4GlcAβ1-3GalNAc • Saturated Ch octasaccharide (Ch8) • GlcAβ1-3GalNAcβ1-4GlcAβ1-3GalNAcβ1-4GlcAβ1-3GalNAcβ1-4GlcAβ1-3GalNAc
The same experiment as Experiment 2 was performed by using these oligosaccharides.

[2] = tested on: Hsp72; assay: Expression of Hsp72 in K562 cells given heat shock, Western blotting; assay type: cell-based, human
Description: HA2, ΔHA4, HA6, HA84 and L4L4 were each added to a medium containing the aforementioned cells (37° C.) at a concentration of 1, 10 or 100 ng/mL. Then, the cells were immediately transferred into an environment at 43° C. to be given with heat shock and incubated for 20 minutes. Then, the cells were returned to 37° C., then further incubated for 2 hours and collected by centrifugation, and SDS-PAGE was performed in the same manner as in <1> mentioned above. Thereafter, Western blotting was performed by using anti-Hsp72 monoclonal antibodies (produced by Amersham) as primary antibodies and goat anti-rabbit IgG monoclonal antibodies (produced by Jackson Lab) as secondary antibodies to detect Hsp72. Hsp72 is one of the members of Hsp70 family and is the most typical one, and it is known that its expression is induced and promoted by stress.
The leftmost lane in FIG. 42a indicates the results of the detection of Hsp72 in a similar manner with giving no heat shock (37° C.) and addition of no test substance, and the rightmost lane indicates the results of detection of standard Hsp72 (Hsp72 derived from bacteria, bHsp72) in a similar manner.

Structure (SMILES): CC(=O)N[C@H]1[C@H](O[C@H]2[C@H](O)[C@@H](O)[C@H](O[C@H]3[C@H](O)[C@@H](CO)O[C@@H](O[C@H]4[C@H](O)[C@@H](O)[C@H](O[C@H]5[C@H](O)[C@@H](CO)OC(O)[C@@H]5NC(C)=O)O[C@@H]4C(=O)O)[C@@H]3NC(C)=O)O[C@@H]2C(=O)O)O[C@H](CO)[C@@H](O)[C@@H]1O[C@@H]1O[C@H](C(=O)O)[C@@H](O)[C@H](O)[C@H]1O.[Na].[Na].[Na] (stereo partly drawn) [HA6, sodium β-D-glucopyranosyluronate-[(1→3)-2-acetamido-2-deoxy-β-D-glucopyranosyl-(1→4)-(sodium β-D-glucopyranosyluronate)]2-(1→3)-2-acetamido-2-deoxy-D-glucopyranose]
- shift of a band of 66 kDa (HSF1 not phosphorylated) to a band of 81 kDa (phosphorylated HSF1) [1]: shift to the 81 kDa band was observed depending on the amount of the added HA oligosaccharide

Structure (SMILES): CC(=O)NC1C(O)OC(CO)[C@@H](O)C1O[C@@H]1OC(C(=O)[O-])[C@@H](O[C@@H]2OC(CO)[C@@H](O)C(O[C@@H]3OC(C(=O)[O-])=CC(O)C3O)C2NC(C)=O)C(O)C1O.[Na+].[Na+] (stereo partly drawn) [ΔHA4, ΔGlcAβ1-3GlcNAcβ1-4GlcAβ1-3GlcNAc]
- shift of a band of 66 kDa (HSF1 not phosphorylated) to a band of 81 kDa (phosphorylated HSF1) [1]: shift to the 81 kDa band was observed depending on the amount of the added HA oligosaccharide
- amount of HSF1 per se [1]: amounts of both HSF1 of 66 kDa and 81 kDa per se were also increased
- band shift of HSF1 (66 kDa to 81 kDa) [1]: band shift was observed
- expression of Hsp72 ([2]; K562 cells not given heat shock): enhancement of the expression of Hsp72 by ΔHA4 was not observed
- expression of Hsp72 ([2]; K562 cells, 1, 10 or 100 ng/mL, heat shock 43° C. 20 minutes, then 37° C. 2 hours): particularly strongly enhanced

Structure (SMILES): CC(=O)N[C@H]1[C@H](O[C@H]2[C@H](O)[C@@H](O)[C@H](O[C@H]3[C@H](O)[C@@H](CO)O[C@@H](O[C@H]4[C@H](O)[C@@H](O)[C@H](O[C@H]5[C@H](O)[C@@H](CO)O[C@@H](O[C@H]6[C@H](O)[C@@H](O)[C@H](O[C@H]7[C@H](O)[C@@H](CO)OC(O)[C@@H]7NC(C)=O)O[C@@H]6C(=O)O)[C@@H]5NC(C)=O)O[C@@H]4C(=O)O)[C@@H]3NC(C)=O)O[C@@H]2C(=O)O)O[C@H](CO)[C@@H](O)[C@@H]1O[C@@H]1O[C@H](C(=O)O)[C@@H](O)[C@H](O)[C@H]1O (stereo partly drawn) [HA8, sodium β-D-glucopyranosyluronate-[(1→3)-2-acetamido-2-deoxy-β-D-glucopyranosyl-(1→4)-(sodium β-D-glucopyranosyluronate)]3-(1→3)-2-acetamido-2-deoxy-D-glucopyranose]
- shift of a band of 66 kDa (HSF1 not phosphorylated) to a band of 81 kDa (phosphorylated HSF1) [1]: inhibition of the band shift was observed
- amount of HSF1 per se [1]: increase of the amount of HSF1 of 66 kDa was observed
- band shift of HSF1 (66 kDa to 81 kDa) [1]: band shift to the band of 81 kDa was not observed
